Data from paper PMC11129181, “Histidine-Covalent Stapled Alpha-Helical Peptides Targeting hMcl-1” (Journal of Medicinal Chemistry, 2024).
Where two headings read alike, the source gives them in different places. Marks after values point to notes of the source that are not given here. Positions of bridges follow the written chain, without caps; N, C: chain ends. Non-standard residues stand in square brackets, D forms with d. Residues, ends and D or L forms follow the SMILES beside them. *: point of attachment. Benzoyl(2-OMe,5-SO2F) = COc1ccc(S(=O)(=O)F)cc1C(=O)*; Ala(1H-tetrazol-5-yl) = N[C@@H](Cc1nnn[nH]1)C(=O)O; S5 = C=CCCC[C@](C)(N)C(=O)O; Dap = NC[C@H](N)C(=O)O

Key:
[1] = Circular dichroism, percentage of alpha-helix (BeStSel); type: physicochemical; details: 25 °C
From the text: (§1) Furthermore, to verify that the peptides preferentially assumed a stabilized alpha-helical conformation in the stapled version compared to the linear peptide, we performed CD measurements. Typical curves for the linear peptide (138E12, blue) and a stapled peptide (155H1, red) are reported in Figure 3, while CD data for all other peptides are reported as the Supporting Information (Supporting Figures S3–S14). Using these measurements and the software BeStSel (https://bestsel.elte.hu),[34] we could calculate the percentage of alpha-helical content for each peptide (Table 2). Most stapled peptides, perhaps except compound 4 and compound 7, assumed nearly complete alpha-helical conformation in aqueous buffer (Table 2 and Supporting Figures S3–S14).
Circular dichroism spectra were acquired on a Jasco 815 spectropolarimeter. Samples were prepared in MQ Water or in 15 mM phosphate buffer, pH 7.5. The experiments were conducted at 25 °C, using a 1 mm-path length quartz cell to record data from 190 to 260 nm in 1 nm increments. The response time was 2 s. The data were then converted to Δε(M^–1·cm^–1), and the percentage of alpha-helix was calculated using BeStSel (https://bestsel.elte.hu) software.[34]

[2] = target: T1, hMcl-1(172–323) (Homo sapiens, UniProt Q07820); assay: DELFIA displacement of biotinylated-BH3 peptide from hMcl-1(172–323); type: binding
T1 construct: made in house; host or cells: E. coli BL21 (DE3) gold pLysS
T1 sequence (Q07820 172-323): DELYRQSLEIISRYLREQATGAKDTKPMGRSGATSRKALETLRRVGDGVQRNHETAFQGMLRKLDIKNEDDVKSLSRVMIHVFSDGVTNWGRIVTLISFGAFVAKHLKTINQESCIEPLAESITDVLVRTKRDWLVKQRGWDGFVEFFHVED
Description: At the end of a 2 h incubation, plates were washed 3 times. Subsequently, a solution of 6His-tagged-hMcl-1(172–323) or 6His-tagged-hBfl-1(1–149) protein and the test peptides were preincubated for 2 h and added to the washed streptavidin-coated plates along with a Eu–N1-labeled anti-6xHis antibody (PerkinElmer, 1:2000) solution and further incubated for 2 h on a microplate shaker. Plates were then washed 3 times, and each well was incubated with 200 μL of the enhancement solution (PerkinElmer) for 10 min. Fluorescent readings (VICTOR X5 microplate reader) were then measured by using the excitation and emission wavelengths of 340 and 615 nm, respectively. Fluorescent counts were normalized to those of DMSO wells and reported as % inhibition, and Prism 10 (GraphPad) was used to calculate the IC50 values. Protein, peptide, and antibody solutions were prepared in a DELFIA assay buffer (PerkinElmer), and all of the incubations were performed at room temperature. Each well received a final DMSO concentration of 1%. The final concentrations of 6His-tagged-hMcl-1(172–323) and 6His-tagged-hBfl-1(1–149) used were 16 and 15 nM, respectively.

[3] = Aqueous solubility (observation); type: physicochemical; details: observed during CD measurements
From the text: as §1

[4] = tested on: A549 NucLight Red cells; assay: Lytic effect on A549 NucLight Red cells (IncuCyte S3); type: cell-based, human; details: for lytic effect on A549 cells: high concentrations, nearly immediate cell bursting after exposure, fluorescence microscopy; for lytic effect on A549 NucLight Red cells: 100 μM, images 20 min after exposure
From the text: Amphipathic alpha-helical peptides have been reported to cause nonspecific membrane disruption events due to their constrained helical structure and amino acid composition.[2],[5],[37],[38] Lytic peptides in fact are highly efficient at binding and disrupting the negatively charged membrane of cells, as they are usually amphipathic and positively charged.[2],[5],[37],[38] Key determinants for cell permeability and the lytic effect are the combination of relatively high hydrophobic content and the number of positively charged residues in addition to the position of the staple within the alpha-helical peptide. Therefore, our design strategy included peptides with varying net charges and explored different positions of the staple within the peptide (Tables 1 and 2; Figure 2). To assess cellular permeability and to detect eventual nonspecific cell lytic effects, we tested selected stapled covalent peptides against the human nonsmall cell lung cancer (NSCLC) cell line A549 (Figure 7). To enhance live cell analysis, we used a cell line that was fluorescently labeled (A549 NucLight Red cells, Essen Bioscience), and cells were monitored for cell lysis via fluorescence microscopy using the IncuCyte S3 live-cell analysis system (Figure 7). […] Considering those data, together with the affinity for hMcl-1(172–323), alpha-helical content (Table 2), and covalent complex formation as detected by SDS gel electrophoresis, mass spectrometry, NMR, and X-ray crystallography, we selected agent 155H1, which was further tested in preliminary cell permeability and cellular efficacy studies.
Figure 7 Lytic effect of stapled peptides on the NSCLC A549 NucLight Red cells detected via the IncuCyte S3 live-cell analysis system. The schematic illustrations depict the lytic (panel A) and nonlytic (panel B) effects of stapled agents on the cells. Representative images of cells collected 20 min after exposure to 100 μM lytic stapled compound 1 (panel A) or nonlytic stapled peptide 155H1 (panel B), along with untreated (DMSO only) cells as a control. Note: Images were taken 20 min after plates were placed inside the IncuCyte S3 to minimize condensation that can affect image quality. The scale bar denotes 100 μm.
Nonsmall cell lung cancer (NSCLC) A549 NucLight Red cells were purchased from Essen Bioscience and cultured in Ham’s F-12 nutrient mixture with GlutaMAX-1 (Gibco) supplemented with 10% FBS and 0.5 μg/mL puromycin. Cells were maintained in a humidified incubator at 37 °C in 5% CO2. These cells have nuclei-fluorescently labeled red. Anti-hMcl-1 and anti-β-tubulin antibodies were purchased from Cell Signaling Technology (#5453) and Santa Cruz Biotechnology (sc-58884), respectively. HRP-conjugated goat antimouse and antirabbit secondary antibodies were purchased from ThermoFisher Scientific.

[5] = DELFIA displacement assay, n = 2, 16 nM 6His-hMcl-1(172–323), protein and peptide preincubated 2 h, room temperature, 1% DMSO, read-out: IC50 (nM) hMcl-1(172–323)

Compound: Ac-Dap(2MeO,5FSB)IAEQLRRIGDRF-CONH2 [138E12, previously reported linear Lys 234-covalent BH3 peptide with aryl-sulfonyl fluoride, reference compound]
- % alpha-helix ([1]; CD spectra measured both in water and in 15 mM phosphate buffer pH 7.5, BeStSel): 48.3 ^b %

Compound: Ac-Dap(2MeO,5FSB)IXEQLXRIGDRF-CONH2 (sidechain bridge or staple) ({Ac-Dap(2MeO,5FSB)}-I[S5]EQL[S5]RIGDRF-NH2; staple 2-6) [compound 10, stapled covalent BH3 peptide, staple at positions 4 and 8]
- % alpha-helix ([1]; CD, 190–260 nm, MQ water or 15 mM phosphate buffer pH 7.5, calculated using BeStSel): 100%
- IC50 [2, 5]: 174 ± 1 nM

Compound: Ac-Dap(2MeO,5FSB)IAEQLRRIGDRF-CONH2 (Ac-[Dap](2‑methoxy‑5‑fluorosulfonylbenzoyl)IAEQLRRIGDRF-NH2) [138E12, previously reported linear Lys 234-covalent BH3 peptide with aryl-sulfonyl fluoride, reference compound]
- IC50 [2, 5]: 18 ± 4 nM

Compound: CC[C@H](C)[C@H](NC(=O)[C@H](CNC(=O)c1cc(S(=O)(=O)F)ccc1OC)NC(C)=O)C(=O)N[C@@H](C)C(=O)N[C@@]1(C)CCC/C=C\CCC[C@@](C)(C(=O)N[C@H](C(=O)NCC(=O)N[C@@H](CC(=O)O)C(=O)N[C@@H](C)C(=O)N[C@@H](Cc2ccccc2)C(N)=O)[C@@H](C)CC)NC(=O)[C@H](CCCNC(=N)N)NC(=O)[C@H](CC(C)C)NC(=O)[C@H](CCC(N)=O)NC1=O [compound 7] (Ac-[Dap](Benzoyl(2-OMe,5-SO2F))IA[S5]QLR[S5]IGDAF-NH2; staple (Z) 4-8)
- aqueous solubility [3]: limited aqueous solubility

Compound: CC[C@H](C)[C@H](NC(=O)[C@H](CCCNC(=N)N)NC(=O)[C@H](CCCNC(=N)N)NC(=O)[C@H](CC(C)C)NC(=O)[C@H](CCC(N)=O)NC(=O)[C@]1(C)CCC/C=C/CCC[C@](C)(NC(C)=O)C(=O)N[C@@H](CNC(=O)c2cc(S(=O)(=O)F)ccc2OC)C(=O)N[C@@H]([C@@H](C)CC)C(=O)N[C@@H](C)C(=O)N1)C(=O)NCC(=O)N[C@@H](Cc1nn[nH]n1)C(=O)N[C@@H](CCCNC(=N)N)C(=O)N[C@@H](Cc1ccccc1)C(N)=O [compound 2] (Ac-[S5][Dap](Benzoyl(2-OMe,5-SO2F))IA[S5]QLRRIG[Ala(1H-tetrazol-5-yl)]RF-NH2; staple (E) 1-5)
- lytic effect on A549 cells [4]: lytic effect was observed
- IC50 [2]: 633 ± 30 nM

Compound: CC[C@H](C)[C@H](NC(=O)[C@H](C)NC(=O)[C@H](CCCNC(=N)N)NC(=O)[C@H](CC(C)C)NC(=O)[C@H](CCC(N)=O)NC(=O)[C@]1(C)CCC/C=C/CCC[C@](C)(NC(C)=O)C(=O)N[C@@H](CNC(=O)c2cc(S(=O)(=O)F)ccc2OC)C(=O)N[C@@H]([C@@H](C)CC)C(=O)N[C@@H](C)C(=O)N1)C(=O)NCC(=O)N[C@@H](CC(=O)O)C(=O)N[C@@H](C)C(=O)N[C@@H](Cc1ccccc1)C(N)=O [compound 4] (Ac-[S5][Dap](Benzoyl(2-OMe,5-SO2F))IA[S5]QLRAIGDAF-NH2; staple (E) 1-5)
- aqueous solubility [3]: limited aqueous solubility

Compound: CC[C@H](C)[C@H](NC(=O)[C@H](CNC(=O)c1cc(S(=O)(=O)F)ccc1OC)NC(C)=O)C(=O)N[C@@H](C)C(=O)N[C@@H](CCC(=O)O)C(=O)N[C@@H](CCC(N)=O)C(=O)N[C@@H](CC(C)C)C(=O)N[C@@H](CCCNC(=N)N)C(=O)N[C@@]1(C)CCC/C=C\CCC[C@@](C)(C(=O)N[C@@H](Cc2ccccc2)C(N)=O)NC(=O)[C@H](CC(=O)O)NC(=O)CNC(=O)[C@H]([C@@H](C)CC)NC1=O [11 (155H1)] (Ac-[Dap](Benzoyl(2-OMe,5-SO2F))IAEQLR[S5]IGD[S5]F-NH2; staple (Z) 8-12)
- lytic effect on A549 NucLight Red cells [4]: nonlytic

Compound: CC[C@H](C)[C@H](NC(=O)[C@H](CCCNC(=N)N)NC(=O)[C@H](CCCNC(=N)N)NC(=O)[C@H](CC(C)C)NC(=O)[C@H](CCC(N)=O)NC(=O)[C@]1(C)CCC/C=C/CCC[C@](C)(NC(C)=O)C(=O)N[C@@H](CNC(=O)c2cc(S(=O)(=O)F)ccc2OC)C(=O)N[C@@H]([C@@H](C)CC)C(=O)N[C@@H](C)C(=O)N1)C(=O)NCC(=O)N[C@@H](CC(=O)O)C(=O)N[C@@H](CCCNC(=N)N)C(=O)N[C@@H](Cc1ccccc1)C(N)=O [compound 1] (Ac-[S5][Dap](Benzoyl(2-OMe,5-SO2F))IA[S5]QLRRIGDRF-NH2; staple (E) 1-5)
- lytic effect on A549 NucLight Red cells [4]: lytic
- lytic effect on A549 cells [4]: lytic effect was observed
